Broadly, the EC50 is the concentration that produces a half-maximal response. A higher EC50 goes with a less potent agent. For orientation: IC50 means the concentration that gives 50% inhibition.

The record followed here is patent publication US10961233B2 (LIFEARC, priority 2016, dated 2021).

The structures appear in SMILES notation.

In assay [1] the test system is LM2 and MDA-MB-231 breast cancer cell lines. The assay can be described thus: PAICS 2D cell proliferation assay (CellTiter-Glo viability, 72 h). The settings on record: Homo sapiens; 72 h incubation; cell line not given. It counts as cell-based. As to the method: PAICS 2D Cell Proliferation Assay
Frozen cryovial stocks of LM2 and MDA-MB-231 breast cancer cell lines were thawed and cultured in 4.5 g/L glucose DMEM (31966-047, Invitrogen) supplemented with 10% Fetal Bovine Serum (10500-064, Invitrogen) until confluent in a T175 flask. Cells were incubated at 37° C. with 5% CO2 in a humidified incubator.
Cells were collected from T175 flasks by washing with PBS (10010-056, Invitrogen) and dissociated using Accutase (A6964, Sigma Aldrich). This was followed by centrifuging (1200 rpm, 5 min) and resuspending the cells in 10 ml of media containing 1% penicillin/streptomycin (15140-122, Invitrogen). Cells were counted by trypan blue exclusion method using an automated cell counter (Cellometer) and diluted to a concentration of 40,000/ml. 1000 cells were then seeded into 384-well white-walled plates (Corning, 3707) in a volume of 25 μl. Plates were Incubated overnight at 37° C. with 5% CO2.
After 24 hours, PAICS compounds were added onto the assay plates using an HP D300 Digital Dispenser (Hewlett Packard). 10 mM stocks were used and dispensed as a 10 point concentration response curve (CRC) ½ log dilution series with a final top concentration of 100 μM. Controls were added onto each plate: positive controls included Staurosporine CRC (100 μM stock dispensed as a 10 point CRC ½ log dilution series with a final top concentration of 1 μM) and PAICS compound MRT00211919 (10 mM stock dispensed as a 10 point CRC ½ log dilution series with a final top concentration of 100 μM); a high control of Staurosporine (0.1 μM (LM2), 0.316 μM (MDA-MB-231) FAC) and a low control of media containing 1% DMSO. A final concentration of 1% DMSO was then added across the plates for normalisation. Following compound addition, assay plates were incubated for 72 hours at 37° C. with 5% CO2.
Day 5—Cytotoxicity and Cell Viability Assays
After 72 h incubation, dead and viable cells were measured in each assay plate. Cytotoxicity was assessed through fluorescent DNA staining using the CellTox™ Green Cytotoxicity Assay kit (G8743, Promega) following the manufacturer's multiplexing protocol. Impaired cell membrane integrity results in the access of dye to stain DNA allowing quantification of dead cells. Cell viability was determined following ATP quantification using the CellTiter-Glo® Luminescent Cell Viability Assay kit (G7572, Promega) following the manufacturer's protocol. ATP released from lysed cells allowed for the generation of a signal proportional to the number of cells present in the well. All endpoint reads were performed using the PheraSTAR Plus (BMG Labtech). Data is expressed as % viable cells and % dead cells against controls (mean±SEM of duplicate curves).
A general note: In ATP-based viability assays light output follows the ATP content of the culture.

The target of the next assay is WT full length PAICS (Homo sapiens (Human), UniProt P22234). Description: Biochemical assay to measure PAICS activity (Transcreener ADP2 FI). The settings on record: SAICAR synthetase reaction, ADP detection, 30 min pre-incubation. The text has this:
Biochemical Assay to Measure PAICS Activity
The biochemical assay was used to measure PAICS SAICAR synthetase-mediated conversion of CAIR, aspartic acid and ATP to SAICAR, ADP and inorganic phosphate (Pi), post-AIR/CAIR equilibration (see FIG. 3). This was achieved by detecting the ADP generated during the reaction, using Bellbrook Lab's Transcreener ADP^2 FI assay. An increase in the fluorescence intensity is directly proportional to the amount of PAICS activity.
The Transcreener ADP^2 FI assay is a homogeneous competitive displacement fluorescence intensity assay which uses direct immunodetection of ADP. Displacement of the tracer by ADP causes an increase in the fluorescence at excitation 590 nm and emission 617 nm (FIG. 3).
5 μl WT full length PAICS (final assay concentration, fac, 2.5 nM) in basic buffer, added to black, non-binding, 384-well plates (Corning #3575), columns 1 to 22. 5 μl basic buffer was added to columns 23+24 (negative control). PAICS stock at 31.9 μM from the PI's lab (Steve Firestine). Basic buffer contained 50 mM Tris-HCl pH8 and 0.5 mM EDTA, fac.
1 μl compound in 100% DMSO added per well, or 1 μl 100% DMSO to positive controls (columns 1+2) and negative controls (columns 23+24). Final assay top concentration of compound either 1 mM or 30-μM, serially diluted with half-log dilutions across the plate in duplicate (one 10-point concentration response curve across wells 3 to 12, another across 13 to 22). Compounds pre-incubated with PAICS enzyme for 30 mins at RT. 2 μl CAIR added (fac 10 μM) in basic buffer plus 25 mM MgCl2 and 50 mM KHCO3 fac to all wells. CAIR stock 50 mM from Steve Firestine's lab. 1 hr RT incubation for AIR-CAIR equilibration. NB: ˜50% CAIR is decarboxylated during equilibration therefore 5 μM remains for the synthetase reaction.
2 μl ATP/aspartic acid added (fac 30 μM/180 μM) in reaction buffer to all wells. 30 mins RT incubation for appropriate level of ATP turnover. Reaction buffer contained basic buffer plus 10 mM DTT, 0.01% BSA and 0.01% Brij 35, fac.
10 μl ADP detection reagent added to all wells (as per instructions, Transcreener ADP^2 FI kit, BellBrook Labs #3013-10K). Incubation for 1 h at RT to allow antibody equilibration. Fluorescence intensity determined using a Tecan Safire2 (excitation at 590 nm, emission at 617 nm).

WT full length PAICS, sequence (P22234 whole entry): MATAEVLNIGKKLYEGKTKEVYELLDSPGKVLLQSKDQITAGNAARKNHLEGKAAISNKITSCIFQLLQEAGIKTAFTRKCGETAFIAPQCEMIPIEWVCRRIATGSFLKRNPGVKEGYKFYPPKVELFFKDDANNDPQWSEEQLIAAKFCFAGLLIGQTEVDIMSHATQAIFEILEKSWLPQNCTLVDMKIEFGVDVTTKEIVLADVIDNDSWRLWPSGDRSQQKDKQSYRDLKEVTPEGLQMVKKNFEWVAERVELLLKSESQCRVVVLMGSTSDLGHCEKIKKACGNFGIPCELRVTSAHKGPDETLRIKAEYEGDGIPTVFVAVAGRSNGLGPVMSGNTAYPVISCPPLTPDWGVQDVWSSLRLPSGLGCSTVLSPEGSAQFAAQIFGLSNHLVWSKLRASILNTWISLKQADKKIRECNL

For `CSc1ccc(N2CCN(C(=O)OCCN(C)C)CC2)cc1NC(=O)c1coc(N)n1` [Example 27, 2-(Dimethylamino)ethyl 4-[3-{[(2-amino-1,3-oxazol-4-yl)carbonyl]amino}-4-(methylsulfanyl)phenyl]piperazine-1-carboxylate], the 50% effective concentration (EC50) in assay [1] fell in the range of 500 to 1000 nM.
As to `CN1CCC(S(=O)(=O)N2CCN(c3ccc(Br)c(NC(=O)c4coc(N)n4)c3)CC2)C1` (centres unmarked) [Example 89, 2-Amino-N-(2-bromo-5-{4-[(1-methylpyrrolidin-3-yl)sulfonyl]piperazin-1 yl}phenyl)-1,3-oxazole-4-carboxamide], the concentration for a half-maximal effect (EC50) in assay [1] is 100 to 250 nM.
Turning to `CN1CCC(OC(=O)N2CCN(c3ccc(Cl)c(NC(=O)c4coc(N)n4)c3)CC2)C1` (centres unmarked) [Example 30, 1-Methylpyrrolidin-3-yl 4-(3-{[(2-amino-1,3-oxazol-4-yl)carbonyl]amino}-4-chlorophenyl)piperazine-1-carboxylate], on WT full length PAICS, the half-inhibitory concentration (IC50) is greater than 100 nM. Moreover, the half-maximal effective concentration (EC50) in assay [1] fell in the range of 500 to 1000 nM.
In the same order, the values of `CC(C)NCCS(=O)(=O)N1CCN(c2ccc(Br)c(NC(=O)c3coc(N)n3)c2)CC1` [Example 63] are less than 10 nM and less than 100 nM.
`Nc1nc(C(=O)Nc2cc(N3CCN(C(=O)OC4CNC4)CC3)ccc2Cl)co1` [Example 22, Azetidin-3-yl 4-(3-{[(2-amino-1,3-oxazol-4-yl)carbonyl]amino}-4-chlorophenyl)piperazine-1-carboxylate] displayed an IC50 against WT full length PAICS greater than 100 nM. Besides, in assay [1], the 50% effective concentration (EC50) was in the range of 100 to 250 nM.
In the same order, the values of `Nc1nc(C(=O)Nc2cc(N3CCN(C(=O)OCCNC4CC4)CC3)ccc2Br)co1` [Example 21, 2-(Cyclopropylamino)ethyl 4-(3-{[(2-amino-1,3-oxazol-4-yl)carbonyl]amino}-4-bromophenyl)piperazine-1-carboxylate] are 10 to 25 nM and 100 to 250 nM.
In the same order, the values of `CN(C)CCCS(=O)(=O)N1CCN(c2ccc(Cl)c(NC(=O)c3coc(N)n3)c2)CC1` [Example 68, 2-Amino-N-[2-chloro-5-(4-{[3-(dimethylamino)propyl]sulfonyl}piperazin-1-yl)phenyl]-1,3-oxazole-4-carboxamide] are 10 to 25 nM and 250 to 500 nM.
As for `CC(CNC(C)C)CS(=O)(=O)N1CCN(c2ccc(Br)c(NC(=O)c3coc(N)n3)c2)CC1` (centres unmarked) [Example 80, 2-Amino-N-[2-bromo-5-(4-{[2-methyl-3-(propan-2-ylamino)propyl]sulfonyl}piperazin-1-yl)phenyl]-1,3-oxazole-4-carboxamide], the EC50 in assay [1] was less than 100 nM.
As for `CN(C)CCOC(=O)N1CCN(c2ccc(Cl)c(NC(=O)c3coc(N)n3)c2)CC1` [Example 33, 2-(Dimethylamino)ethyl 4-(3-{[(2-amino-1,3-oxazol-4-yl)carbonyl]amino}-4-chlorophenyl)piperazine-1-carboxylate], at WT full length PAICS, the IC50 is 25 to 100 nM. The EC50 in assay [1] is 500 to 1000 nM.
For `CCN(CC)CCCS(=O)(=O)N1CCN(c2ccc(Br)c(NC(=O)c3coc(N)n3)c2)CC1` [Example 77, 2-Amino-N-[2-bromo-5-(4-{[3-(diethylamino)propyl]sulfonyl}piperazin-1-yl)phenyl]-1,3-oxazole-4-carboxamide] the same measures were less than 10 nM and less than 100 nM.
In the same order, the values of `CCNCCCS(=O)(=O)N1CCN(c2ccc(Cl)c(NC(=O)c3coc(N)n3)c2)CC1` [Example 74] are less than 10 nM and 250 to 500 nM.
In the same order, the values of `CN1CCC(NCCS(=O)(=O)N2CCN(c3ccc(Cl)c(NC(=O)c4coc(N)n4)c3)CC2)CC1` [Example 62, 2-Amino-N-{2-chloro-5-[4-({2-[(1-methylpiperidin-4-yl)amino]ethyl}sulfonyl)piperazin-1-yl]phenyl}-1,3-oxazole-4-carboxamide] are 10 to 25 nM and 250 to 500 nM.
On to `CCNCCCS(=O)(=O)N1CCN(c2ccc(Br)c(NC(=O)c3coc(N)n3)c2)CC1` [Example 70, 2-Amino-N-[2-bromo-5-(4-{[3-(ethylamino)propyl]sulfonyl}piperazin-1-yl)phenyl]-1,3-oxazole-4-carboxamide], for which the IC50 against WT full length PAICS is less than 10 nM. Also, the concentration giving a half-maximal response (EC50) in assay [1] was less than 100 nM.
Consider `CSc1ccc(N2CCN(C(=O)OCCCN(C)C)CC2)cc1NC(=O)c1coc(N)n1` [Example 26, 3-(Dimethylamino)propyl-4-[3-{[(2-amino-1,3-oxazol-4-yl)carbonyl]amino}-4-(methylsulfanyl)phenyl]piperazine-1-carboxylate], for which, in assay [1], the concentration giving a half-maximal response (EC50) is 500 to 1000 nM.
For `CC(C)NCCCS(=O)(=O)N1CCN(c2ccc(Br)c(NC(=O)c3coc(N)n3)c2)CC1` [Example 76, 2-Amino-N-[2-bromo-5-(4-{[3-(propan-2-ylamino)propyl]sulfonyl}piperazin-1-yl)phenyl]-1,3-oxazole-4-carboxamide], the half-maximal inhibitory concentration (IC50) against WT full length PAICS was less than 10 nM. Besides, the half-maximal effective concentration (EC50) in assay [1] was less than 100 nM.
Take `CNCC(C)CS(=O)(=O)N1CCN(c2ccc(Br)c(NC(=O)c3coc(N)n3)c2)CC1` (centres unmarked) [Example 78, 2-Amino-N-[2-bromo-5-(4-{[2-methyl-3-(methylamino)propyl]sulfonyl}piperazin-1-yl)phenyl]-1,3-oxazole-4-carboxamide]: in assay [1], the EC50 was less than 100 nM.
On the same count and under the same terms, in the case of `CC(CN(C)C)CS(=O)(=O)N1CCN(c2ccc(Br)c(NC(=O)c3coc(N)n3)c2)CC1` (centres unmarked) [Example 82, 2-Amino-N-[2-bromo-5-(4-{[3-(dimethylamino)-2-methylpropyl]sulfonyl}piperazin-1-yl)phenyl]-1,3-oxazole-4-carboxamide] it was 100 to 250 nM.
On the same count and under the same terms, in the case of `CCNCC(C)CS(=O)(=O)N1CCN(c2ccc(Br)c(NC(=O)c3coc(N)n3)c2)CC1` (centres unmarked) [Example 79, 2-Amino-N-[2-bromo-5-(4-{[3-(ethylamino)-2-methylpropyl]sulfonyl}piperazin-1-yl)phenyl]-1,3-oxazole-4-carboxamide] it was less than 100 nM; in that of `Nc1nc(C(=O)Nc2cc(N3CCN(S(=O)(=O)C4CCNC4)CC3)ccc2Br)co1` (centres unmarked) [Example 88, 2-Amino-N-{2-bromo-5-[4-(pyrrolidin-3-ylsulfonyl)piperazin-1-yl]phenyl}-1,3-oxazole-4-carboxamide], 100 to 250 nM.
The same measure, in the same setting: to `CC(CN1CCCC1)CS(=O)(=O)N1CCN(c2ccc(Br)c(NC(=O)c3coc(N)n3)c2)CC1` (centres unmarked) [Example 71, 2-Amino-N-[2-bromo-5-(4-{[2-methyl-3-(pyrrolidin-1-yl)propyl]sulfonyl}piperazin-1-yl)phenyl]-1,3-oxazole-4-carboxamide] belongs less than 100 nM.
In turn, `CCN(CC)CC(C)CS(=O)(=O)N1CCN(c2ccc(Br)c(NC(=O)c3coc(N)n3)c2)CC1` (centres unmarked) [Example 81, 2-Amino-N-[2-bromo-5-(4-{[3-(diethylamino)-2-methylpropyl]sulfonyl}piperazin-1-yl)phenyl]-1,3-oxazole-4-carboxamide] showed a 50% effective concentration (EC50) in assay [1] of 100 to 250 nM.
